Laboratory results taken from patent US7250157B2, “Dermatological compositions and methods” (Applied Genetics Incorporated Dermatics, priority 1996, dated 2007).

Experiments:
[1] = tested on: Cloudman S91 mouse melanoma cell line; assay: Trypsinization detachment time of S91 cells; assay type: cell-based
Method: (§1) Following this microscopic examination, cells were detached from dishes by trypsin. The time required for detachment by trypsin was recorded as an additional indicator of the phenotypic effects of test compounds. For each treatment, a subsample of cells was counted to determine the effects of treatment compounds on cellular proliferation. The remainder of cells were used for determination of melanin content. Melanin was extracted from cells by vortexing for 15 min in 1N NaOH. Standards were prepared by dissolving melanin (Sigma) in 1 N NaOH (Eller, et al., 1996). Absorbance of standards and samples was measured at 475 nm. Melanin was expressed as pg melanin/cell.

[2] = tested on: Cloudman S91 mouse melanoma cell line; assay: Cell count (proliferation, toxicity) of treated S91 cells; assay type: cell-based
Method: (§2) The Cloudman S91 mouse melanoma cell line was obtained from American Type Culture Collection (ATCC). Cells were cultured in Dulbecco's Modified Eagles Medium (DMEM) containing 10% calf serum, 2 mM L-glutamine, 10 U Penicillin/ml and 10 ug Streptomycin/ml according to a previously published protocol (Eller, et al., Proc. Natl. Acad. Sci. 93:1087-92. 1996). For testing propylene glycol and analogues for induction of melanogenesis, S91 cells were plated at 10^5 cells/35 mm dish in 10% calf serum. One day after plating, media was removed and replaced with media containing 2% calf serum and test compounds (Eller, et al., 1996). Cells were cultured for 6 days at 37° C. in 5% CO2 in a humidified incubator. Following this treatment period, cells were examined microscopically and the portion of dedifferentiated and differentiated cells was estimated. Previous studies have shown that dedifferentiated S91 cells have a rounded, spindly appearance while differentiated S91 cells have a flattened, cuboidal, multipolar and dendritic appearance (Orlow, et al., Exp. Cell Res. 191:209-218, 1990).
as §1

[3] = tested on: Cloudman S91 mouse melanoma cell line; assay: Microscopic morphology (differentiation) of S91 cells; assay type: cell-based
Method: as §2

[4] = tested on: nitric oxide in cell-free media from S91 cells; assay: Nitric oxide in cell-free media from S91 cells (Greiss reagent); assay type: cell-based, mouse; conditions: 4 days
Method: In a related experiment, nitric oxide was measured in cell-free media from S91 cells following treatment with a range of concentrations of 2,3-cis/exo-pinanediol or 5-norbornene-2,2-dimethanol for 4 days. In biological fluids, nitric oxide is converted into nitrite and nitrate with seconds of production. Therefore, nitric oxide is measured by first converting nitrate to nitrite using nitrate reductase, followed by addition of Greiss reagent to detect nitrite as optical density at 550 nm (Moshage, et al., 1995, Clin. Chem. 41:892-896; Schmidt, et al., 1995, Biochemica 2:22)). […] Moreover, the relative melanogenic potency of 2,3-cis/exo-pinanediol and 5-norbornene-2,2-dimethanol shown in FIG. 5 paralleled the relative potency of these compounds with regards to induction of nitric oxide (Table 17). […] It follows that measurement of induction of nitric oxide, cGMP or PKG may provide biochemically relevant screening assays for compounds that may be melanogenic. Thus, the utilization of these assays to screen compounds for melanogenic activity is claimed in the present invention.

[5] = tested on: normal human epidermal melanocytes (NHEM); assay: Morphological differentiation of NHEM; assay type: cell-based; conditions: 5 mM
Method: Additionally, the length of dendrites was increased approximately 2-3-fold following treatment with 5 mM 5-NBene-2,2-DM, and there was an increase in the number of secretatory vesicles at the termini of dendrites (arrows in FIGS. 3A and 3B). […] Increased secretion of melanosomes resulting from treatment with 5 mM 5-NBene-2,2-DM was reflected in increased extracellular particulate tyrosinase activity (Example 7, Table 11).

CC(O)CO (stereo not shown) [1,2-propanediol, 1,2-Propanediol (Propylene Glycol)]
Trypsinization Detachment Time ([1]; 50 mM): 3 min | Trypsinization Detachment Time ([1]; 150 mM): 6 min | Trypsinization Detachment Time ([1]; 1% (136 mM)): ≦6 min | Trypsinization Detachment Time ([1]; 2% (272 mM)): ≦9 min | Trypsinization Detachment Time ([1]; 3% (408 mM)): ≦12 min | Trypsinization Detachment Time ([1]; 4% (544 mM)): ≦15 min | Trypsinization Detachment Time ([1]; 5% (680 mM)): ≦15 min | Cells (×10^6) ([2]; 50 mM): 0.084 ×10^6 | Cells (×10^6) ([2]; 150 mM): 0.072 ×10^6 | Cells (×10^6) ([2]; 1% (136 mM), 6 days): 0.52 ×10^6 | Cells (×10^6) ([2]; 2% (272 mM), 6 days): 0.50 ×10^6 | Cells (×10^6) ([2]; 3% (408 mM), 6 days): 0.20 ×10^6 | Cells (×10^6) ([2]; 4% (544 mM), 6 days): 0.10 ×10^6 | Cells (×10^6) ([2]; 5% (680 mM), 6 days): 0.08 ×10^6 | effect on cell proliferation ([2]; levels used in this experiment (50 and 150 mM)): no reduction of cell proliferation | Morphology Flattened Cuboidal ([3]; 50 mM): 25% | Morphology Rounded Spindly ([3]; 50 mM): 75% | Morphology Flattened Cuboidal ([3]; 150 mM): 50% | Morphology Rounded Spindly ([3]; 150 mM): 50% | Morphology Flattened Cuboidal ([3]; 1% (136 mM)): 10% | Morphology Rounded Spindly ([3]; 1% (136 mM)): 90% | Morphology Flattened Cuboidal ([3]; 2% (272 mM)): 30% | Morphology Rounded Spindly ([3]; 2% (272 mM)): 70% | Morphology Flattened Cuboidal ([3]; 3% (408 mM)): 60% | Morphology Rounded Spindly ([3]; 3% (408 mM)): 40% | Morphology Flattened Cuboidal ([3]; 4% (544 mM)): 85% | Morphology Rounded Spindly ([3]; 4% (544 mM)): 15% | Morphology Flattened Cuboidal ([3]; 5% (680 mM)): 100%

OCC1(CO)CC2C=CC1C2 (stereo not shown) [5-NBene-2,2-DM, 5-norbornene-2,2-dimethanol]
Cells (×10^6) ([2]; 1 mM, 4 days, X ± SE, n = 3): 0.423 ± 0.052 ×10^6 | Cells (×10^6) ([2]; 2.5 mM, 4 days, X ± SE, n = 3): 0.269 ± 0.040 ×10^6 | Cells (×10^6) ([2]; 5 mM, 4 days, X ± SE, n = 3): 0.090 ± 0.011 ×10^6 | toxicity to S91 cells ([2]; concentrations that induce much higher levels of tyrosinase): nontoxic | nmoles NO/10^6 Cells ([4]; 1 mM): 11.6 ± 1.1 nmoles NO/10^6 Cells | uM NO ([4]; 1 mM): 4.80 ± 0.32 µM | nmoles NO/10^6 Cells ([4]; 2.5 mM): 21.4 ± 3.7 nmoles NO/10^6 Cells | uM NO ([4]; 2.5 mM): 5.46 ± 0.32 µM | nmoles NO/10^6 Cells ([4]; 5 mM): 72.9 ± 10.5 nmoles NO/10^6 Cells | uM NO ([4]; 5 mM): 6.36 ± 0.12 µM | increase of length of dendrites of NHEM [5]: 2-3 fold | morphological changes of NHEM (in words) [5]: conversion of cells from a bipolar phenotype to a multidendritic phenotype
